Measured values reported in patent US20220213178A1, “Enhanced Transfection” (The University of Nottingham, priority 2019, published 2022).

Key:
Format in all cases: cell-based
[1] = tested on: LCL lymphoblastoid human B cells; assay: GET transfection of pCMV-Gluc pDNA into LCL cells (FIG. 3); conditions: 20,000 cells, 24 hours post-transfection of 1 μs pCMV-Gluc pDNA with GET; short exposures of TPA
Description: Experiment on 20,000 LCL lymphoblastoid human B cells, measured at 24 hours post-transfection of […] pCMV-Gluc pDNA with GET. T=TPA(μM), S=SAHA (μM). TPA is shown to have the most effect on transfection in LCL cells, and it is enhanced by SAHA. There is effectively no transfection without these modulators.

[2] = tested on: T2 hybrid human T/B cells; assay: GET transfection of pCMV-Gluc pDNA into T2 cells (FIG. 1); conditions: 20,000 cells, 24 hours post-transfection of 1 μg pCMV-Gluc pDNA with GET
Description: Experiment on 20,000 T2 hybrid human T/B cells, measured at 24 hours post-transfection of 1 μg pCMV-Gluc pDNA with GET. T=TPA(μM), S=SAHA (μM). TPA is shown as the major effect on transfection efficiency in T2 cells.

[3] = tested on: RAW264.7 mouse macrophage cells; assay: GET transfection of pCMV-Gluc pDNA into RAW264.7 cells (FIG. 2); conditions: 20,000 cells, 24 hours post-transfection of 1 μg pCMV-Gluc pDNA with GET
Description: Experiment on 20,000 RAW264.7 mouse macrophage cells, measured at 24 hours post-transfection of 1 μg pCMV-Gluc pDNA with GET. T=TPA(μM), S=SAHA (μM).

Row | SMILES | transfection of LCL cells (Gluc) [1] | transfection of T2 cells (Gluc) [2] | transfection of RAW264.7 cells (Gluc) [3]
1 | CCCCCCCCCCCCCC(=O)O[C@@H]1[C@@H](C)[C@@]2(O)[C@@H](C=C(CO)C[C@]3(O)C(=O)C(C)=C[C@@H]23)[C@@H]2C(C)(C)[C@]12OC(C)=O [TPA, phorbol 12-myristate 13-acetate] | significantly enhances transfection | significantly enhances transfection | 
2 | O=C(CCCCCCC(=O)Nc1ccccc1)NO [SAHA, suberoylanilide hydroxamic acid] | significantly enhances transfection |  | significantly enhances transfection
